These results are taken from patent US5952511A, “Indolin-2-one derivatives” (Chugai Seiyaku Kabushiki Kaisha, priority 1993, dated 1999).

Experiment [1] addresses T1, gastrin receptors (guinea pig gastric glands) (Cavia porcellus, UniProt H0VZC5).
T1 construct: The gastric glands were isolated from the tissue with a pipette; from tissue; host or cells: isolated gastric glands from gastric mucosa of Hartley male guinea pigs
T1 sequence (H0VZC5 1-426): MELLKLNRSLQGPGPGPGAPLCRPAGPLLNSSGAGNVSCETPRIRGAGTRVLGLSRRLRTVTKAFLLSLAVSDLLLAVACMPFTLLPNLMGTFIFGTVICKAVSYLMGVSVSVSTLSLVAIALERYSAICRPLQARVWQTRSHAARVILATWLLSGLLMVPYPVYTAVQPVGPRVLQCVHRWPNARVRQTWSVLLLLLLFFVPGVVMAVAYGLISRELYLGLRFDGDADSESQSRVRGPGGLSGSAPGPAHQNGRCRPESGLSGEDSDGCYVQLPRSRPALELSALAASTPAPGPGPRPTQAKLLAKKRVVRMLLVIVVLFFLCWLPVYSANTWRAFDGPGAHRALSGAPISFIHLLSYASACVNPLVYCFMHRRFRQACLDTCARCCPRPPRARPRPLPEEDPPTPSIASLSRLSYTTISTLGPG
The experiment can be described thus: Gastrin Receptor Binding Test in Guinea Pig Gastric Glands (Test Example 1). Set-up: species or system guinea pig (Hartley, male). As to conditions: inhibition of specific 125I-gastrin I human binding (22.5 pM), 25° C., 45 min. The method, then: Gastrin Receptor Binding Test in Guinea Pig Gastric Glands
Preparation of Gastric Glands:
Guinea pig gastric glands were prepared according to the method of Chang, et al., Biochem. Biophys. Res. Commun., 134, 895 (1986). The gastric mucosa of a Hartley male guinea pig was peeled off. After washing, the mucosa was minced with scissors in buffer A (Eagle's MEM containing 2 mM L-glutamine and 25 mM HEPES; pH 7.4). After washing, the minced tissue was incubated in buffer A containing 0.025% collagenase, 0.01% soy bean trypsin inhibitor, and 0.1% BSA at 37° C. for 60 minutes under 95% O2 and 5% CO2. The gastric glands were isolated from the tissue with a pipette, washed twice with buffer A, and filtered through a mesh. Then, the gastric glands were obtained by centrifugation.
Guinea pig gastric glands were resuspended in buffer B (Hank's solution containing 10 mM HEPES and 0.2% BSA; pH 7.4) (10 ml of buffer B per guinea pig).
To 200 μl of the suspension containing the resuspended isolated gastric glands were added 20 μl of ^125 I-gastrin I human (final concentration: 22.5 pM). Then, 10 μl of a test compound or a solvent (for total binding) or 10 μM Pentagastrin (for nonspecific binding), and buffer B was added there to make a total volume of 1 ml. The reaction mixture was incubated at 25° C. for 45 minutes and then centrifuged at 12000 g. The supernatant was removed by suction, and the radioactivity of the isolated gastric glands was measured with a gamma-counter.
The specific binding of gastrin to gastrin receptors was obtained from a difference between the total binding and the nonspecific binding. The IC50 of the test compound in inhibition of specific binding was calculated.

The test system of experiment [2] is gastric acid secretion. Briefly: Inhibitory Activity on Gastric Acid Secretion in Pylorus Ligated Rats (Test Example 2). It counts as in vivo, rat (Sprague-Dawley, male). As to conditions: Rattus norvegicus, intraduodenal, 10 mg/kg, i.d., 4 h. The method, then: Inhibitory Activity on Gastric Acid Secretion in Pyrolus Ligated Rats
Sprague-Dawley male rats weighing about 200 g were deprived of food for 24 hours while allowed water ad libitum. The abdomen was opened under anesthesia with ethyl ether, the pyrolus ligated, and the abdomen closed. The rats were deprived of food and water for 4 hours until they were surcrified with ethyl ether. The stomach was removed, and gastric juice was collected and measured. The gastric juice was centrifuged at 3000 rpm, and the supernatant was titrated up to pH 7.0 with 0.1N NaOH solution to obtain the acidity of the gastric juice. The amount of the gastric acid output was calculated by multiplying the gastric juice volume by the acidity, and the percent inhibition of acid secretion was obtained according to the following equation. A test compound, suspended in a 3% gum arabic solution, was administered intraduodenally at a dose of 2 ml/kg immediately after the pyrolus ligation.
Inhibition (%)=[(Average amount of gastric acid output in control group--Average amount of gastric acid output in test group)/Average amount of gastric acid secreted […]]×100

Experiment [3] deals with T2, CCK-B receptors (rat cerebral cortex) (Rattus norvegicus, UniProt P30553).
T2 construct: Cerebral cortex was minced in the same buffer, and homogenized with Polytron; from tissue; host or cells: cerebral cortex membrane fraction of Sprague-Dawley male rats
T2 sequence (P30553 1-452): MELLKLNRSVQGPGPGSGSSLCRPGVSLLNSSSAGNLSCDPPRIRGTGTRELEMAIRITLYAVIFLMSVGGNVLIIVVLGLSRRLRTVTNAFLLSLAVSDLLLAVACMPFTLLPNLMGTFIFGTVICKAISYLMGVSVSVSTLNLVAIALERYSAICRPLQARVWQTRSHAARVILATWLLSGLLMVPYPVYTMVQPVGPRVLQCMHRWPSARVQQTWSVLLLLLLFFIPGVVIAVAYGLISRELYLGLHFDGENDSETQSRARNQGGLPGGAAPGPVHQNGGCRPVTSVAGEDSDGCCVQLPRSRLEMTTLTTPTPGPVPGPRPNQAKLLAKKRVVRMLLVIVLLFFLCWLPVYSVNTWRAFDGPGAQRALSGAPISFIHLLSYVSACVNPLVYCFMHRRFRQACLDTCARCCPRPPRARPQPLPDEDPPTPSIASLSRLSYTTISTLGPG
Briefly: CCK-B Receptor Binding Test in Rat Cerebral Cortex (Test Example 3). Also noted: species or system rat (Sprague-Dawley, male). As to conditions: inhibition of specific 125I-CCK-8 sulfated binding (15 pM), 25° C., 120 min. As for the experimental part:
CCK-B Receptor Binding Test in Rat Cerebral Cortex
A rat cortical membrane fraction was prepared in accordance with the method of Chang, et al., Proc. Natl. Acad. Sci., U.S.A., 83, 4923 (1986). Sprague-Dawley male rats were sucrified and the brains were removed and immersed in a 50 mM Tris-HCl buffer (pH 7.4) under ice-cooling, and the cortex was dissected. Cerebral cortex was minced in the same buffer, and homogenized with Polytron. The homogenate was centrifuged at 2,500 g, and the supernatant was further centrifuged at 50,000 g. The pellet was resuspended in a reaction buffer solution (10 mM HEPES, 5 mM MgCl2, 1 mM EGTA, 130 mM NaCl; pH 6.5).
To 150 μl of the resulting rat cerebral cortex suspension were added 20 μl of ^125 I-CCK-8 sulfated (final concentration: 15 pM) and 10 μl of a test compound or a solvent (for total binding) or 1 μM CCK-8 sulfated (for nonspecific binding), and the reaction buffer solution was added there to make 1 ml. The reaction mixture was incubated at 25° C. for 120 minutes, followed by filtration through a GF/B filter (produced by Whatman). The radio-activity of the membrane fraction adsorbed onto the filter was measured with a gamma-counter.
The specific binding to CCK-B receptors was obtained from a difference between the total binding and the nonspecific binding. The IC50 of the test compound in inhibition of specific binding was calculated.

Another experiment deals with gastrin receptors. Particulars: in words; cited from earlier work.
Experiment [4] deals with gastric acid secretion. As to conditions: in words; cited from earlier work.
In another experiment the test system is CCK-B receptors. Particulars: in words; cited from earlier work.

Structures are written as SMILES.

What is called IC50 is the concentration needed to halve the response being measured. One may read the inhibition in vivo as the share of the control response that was lost under treatment. Higher therefore signals a response far below the control. As for `CCOC(CN1C(=O)C(CC(=O)Nc2ccc(C)cn2)(NC(=O)Nc2ccc(C)cc2)c2ccccc21)OCC` (racemic) [Example 138, (RS)-1-(2,2-Diethoxyethyl)-3-(N'-(4-methylphenyl)ureido)-3-((5-methylpyrido-2-yl)aminocarbonylmethyl)indolin-2-one], the results for the IC50 in experiment [1] and in experiment [3] were 2.2 nM and 0.5 nM, respectively. This compound also showed an inhibition in vivo at 10 mg/kg in the experiment with gastric acid secretion [2] of 69%.

Take `CCOC(CN1C(=O)C(CC(=O)Nc2ccc(OC)nc2)(NC(=O)Nc2ccc(C)cc2)c2ccccc21)OCC` (racemic) [Example 143, (RS)-1-(2,2-Diethoxtyethyl)-3-((2-methoxypyrido-5-yl)aminocarbonylmethyl)-3-(N'-(4-methylphenyl)ureido)indolin-2-one]: the IC50 came out at 1.5 nM in experiment [1] and 1.9 nM in experiment [3]. In the experiment on gastric acid secretion [2], this compound had an inhibition in vivo at 10 mg/kg of 64%.

Turning to `CCOC(CN1C(=O)C(CC(=O)Nc2ccc(N(C)C)cc2)(NC(=O)Nc2cccc(OC)c2)c2ccccc21)OCC` (racemic) [Example 156], the values for the IC50 in experiment [1] and in experiment [3] were 6.5 nM and 2.8 nM, respectively. In the experiment on gastric acid secretion [2], this compound had an inhibition in vivo at 10 mg/kg of 69%.

On to `CCOC(CN1C(=O)C(CC(=O)Nc2ccc(C)cn2)(NC(=O)Nc2cccc(OC)c2)c2ccccc21)OCC` (racemic) [Example 158, (RS)-1-(2,2-Diethoxyethyl)-3-(N'-(3-methoxyphenyl)ureido)-3-((5-methylpyrido-2-yl)aminocarbonylmethyl)indolin-2-one], for which the IC50 in experiment [1] was 1.4 nM; in experiment [3], 0.56 nM. Moreover, in the experiment with gastric acid secretion [2], the inhibition in vivo at 10 mg/kg is 66%.

As for `CCOC(CN1C(=O)C(CC(=O)Nc2ccc(C)cc2)(NC(=O)Nc2ccc(C)cc2)c2ccccc21)OCC` (single isomer, unassigned; (+)) [Example 174, (+)-1-(2,2-Diethoxyethyl)-3-(4-methylphenyl)aminocarbonylmethyl-3-(N'-(4-methylphenyl)ureido)indolin-2-one], the values for the IC50 in experiment [1] and in experiment [3] were 0.54 nM and 0.42 nM, respectively. The same compound showed an inhibition in vivo at 10 mg/kg in the experiment on gastric acid secretion [2] of 70%.

`CCOC(CN1C(=O)C(CC(=O)Nc2ccc(C)cn2)(NC(=O)Nc2ccc(C)cc2)c2ccccc21)OCC` (single isomer, unassigned; (+)) [Example 179]: the results for the IC50 in experiment [1] and in experiment [3] were 1.6 nM and 0.14 nM, respectively. For the same compound, 10 mg/kg produced 63% inhibition in vivo in the experiment on gastric acid secretion [2].

With `CCOC(CN1C(=O)C(CC(=O)Nc2ccc(N(C)C)cc2)(NC(=O)Nc2ccc(C)cc2)c2ccccc21)OCC` (single isomer, unassigned; (+)) [Example 180, (+)-1-(2,2-Diethoxyethyl)-3-((4-(N,N-dimethylamino)phenyl)aminocarbonylmethyl)-3-(N'-(4-methylphenyl)ureido)indolin-2-one], the values for the IC50 in experiment [1] and in experiment [3] were 4.6 nM and 0.36 nM, respectively. The same compound had an inhibition in vivo at 10 mg/kg with gastric acid secretion [2] of 73%.

Take `CCOC(CN1C(=O)C(CC(=O)Nc2ccc(OC)nc2)(NC(=O)Nc2ccc(C)cc2)c2ccccc21)OCC` (single isomer, unassigned; (+)) [Example 181, (+)-1-(2,2-Diethoxyethyl)-3-((2-methoxypyrido-5-yl)aminocarbonylmethyl)-3-(N'-(4-methylphenyl)ureido)indolin-2-one]: the IC50 in experiment [1] was 2.2 nM; in experiment [3] it was 0.78 nM. Moreover, the inhibition in vivo at 10 mg/kg in the experiment with gastric acid secretion [2] came out at 69%.

As for `CCOC(CN1C(=O)C(CC(=O)Nc2ccc(C)cn2)(NC(=O)Nc2cccc(OC)c2)c2ccccc21)OCC` (single isomer, unassigned; (+)) [Example 190, (+)-1-(2,2-Diethoxyethyl)-3-(N'-(3-methoxyphenyl)ureido)-3-((5-methylpyrido-2-yl)aminocarbonylmethyl)indolin-2-one], the IC50 in experiment [1] stood at 0.68 nM; in experiment [3], 0.1 nM. The compound further had an inhibition in vivo at 10 mg/kg with gastric acid secretion [2] of 70%.

Take `CCOC(CN1C(=O)C(CC(=O)Nc2ccc(N(C)C)cc2)(NC(=O)Nc2cccc(OC)c2)c2ccccc21)OCC` (single isomer, unassigned; (+)) [Example 191]: the IC50 was determined as 5.5 nM in experiment [1] and 0.45 nM in experiment [3]. The compound also gave an inhibition in vivo at 10 mg/kg with gastric acid secretion [2] of 78%.

As for `Cc1cccc(NC(=O)N[C@@H]2N=C(c3ccccc3)c3ccccc3N(C)C2=O)c1` [L-365,260], the “binding activity to gastrin receptors” value in the experiment with gastrin receptors is “high binding activity to gastrin receptors”. For the same compound, in the experiment on gastric acid secretion [4], the “inhibitory activity on gastric acid secretion when administered in vivo” value is reported as “do not exert powerful inhibitory activity on gastric acid secretion”.

Consider `CCCN(CCC)C(=O)C(CCC(=O)O)NC(=O)c1ccccc1` (stereo not shown) [Proglumide], for which the “binding activity to gastrin receptors” value in the experiment on gastrin receptors is recorded as “very weak”. Further, the “binding activity to CCK-B receptors” value in the experiment on CCK-B receptors is “very weak”.
